Experimental data from the NIST ThermoML archive (doi:10.1021/acs.jced.7b00704).
± gives the expanded uncertainty stated by the source.

Assays:
[1] = Liquid, Ebulliometric method (Recirculating still)
[2] = refractive index (Na D-line) (dimensionless); settings: Liquid, Standard Abbe refractometry

vapor or sublimation pressure ([1]; 347.58 K) [kPa] | vapor or sublimation pressure ([1]; 412.31 K) [kPa] | Compound | vapor or sublimation pressure ([1]; 396.21 K) [kPa] | refractive index ([2]; 293.15 K, 93 kPa) | refractive index ([2]; 298.15 K, 101.33 kPa) | vapor or sublimation pressure ([1]; 372.05 K) [kPa]
– | – | CCCCOC(C)=O [butyl ethanoate] | 93.13 ± 0.95 | 1.3943 ± 0.0004 | 1.39175 ± 0.00038 | –
93.13 ± 0.95 | – | CCOC(C)=O [ethyl acetate] | – | 1.3724 ± 0.0004 | 1.3698 ± 0.00038 | –
– | – | CCCOC(C)=O [propyl ethanoate] | – | 1.3843 ± 0.0005 | 1.38181 ± 0.00054 | 93.13 ± 0.97
– | 93.13 ± 0.97 | CC(=O)OCCC(C)C [3-methylbutyl ethanoate] | – | 1.4007 ± 0.0005 | 1.39842 ± 0.00054 | –
